Literature values in patent US10045978B2 (AB SCIENCE, priority 2010, dated 2018).
Where two headings read alike, the source gives them in different places.

Tests used:
[1] = tested on: mastocytosis patients; conditions: in vivo; cited from earlier work
[2] = tested on: patients with WHO-defined systemic mastocytosis (SM); conditions: cited from earlier work
[3] = tested on: mast cells carrying the D816V c-Kit mutation; conditions: in vitro; cited from earlier work
[4] = tested on: patients; conditions: of patients; cited from earlier work
[5] = tested on: indolent mastocytosis patients; conditions: cited from earlier work
[6] = entire evaluable study population (N=108)
[7] = patients with indolent SM (N=22)

| Compound | cases with reduced mast cell tumor burden [1] | major response rate [2, 6] | overall response rate [2, 6] | overall response rate [2, 7] | response of mast cells carrying the D816V c-Kit mutation [3] | grade 4 neutropaenia [4] | patients reporting symptomatic improvements [5] | overall response rate ([2]; c-Kit D816V positive SM patients) |
| --- | --- | --- | --- | --- | --- | --- | --- | --- |
| Nc1nc(Cl)nc2c1ncn2[C@H]1C[C@H](O)[C@@H](CO)O1 [Cladribine] | up to 50% | 37% | 55% | 56% |  |  |  |  |
| NC(=O)NO [hydroxyurea] |  | 0% | 19% | 0% |  |  |  |  |
| Cc1ccc(NC(=O)c2ccc(CN3CCN(C)CC3)cc2)cc1Nc1nccc(-c2cccnc2)n1 [imatinib] |  | 9% | 18% | 14% | resistant | 5% | 6/11 | 17% |
| interferon-alpha |  | 18% | 53% | 60% |  |  |  |  |
